The subject of data set [1] is pression artérielle et membrane nictitante. As to the kind of experiment: Adrenolytic activity in the anaesthetised cat. The data set is classed as in vivo. The note with it: chat. From the text:
(§1) Les propriétés adrénolytiques ont été recherchées chez le chat et le chien anesthésiés vis-à-vis de la pression artérielle et de la membrane nictitante (chat).

The nature of data set [2]: Acute toxicity, intravenous route. The format is in vivo. The following applies: mouse, in vivo, iv; souris, voie intraveineuse; read-out: DL 50 (the source's name). As to the method: (§2) Par voie injectable les composés de formule I ont été administrés jusqu'à 100 mg/kg, sans provoquer de mortalité chez le rat. A titre d'exemple, on précisera que la DL 50 par voie intraveineuse chez la souris est de 330 mg/kg pour le tétrahydroalstonate de sodium. La toxicité du tétrahydroalstonate de créatinol chez la souris,par voie intraveineuse calculée selon la méthode de Kärber est de 450 mg/kg.

The subject of a further data set is pression artérielle. As to the kind of experiment: Adrenolytic activity and arterial pressure in the anaesthetised dog. The following applies: chien, 0,1 à 10 mg/kg par voie intraveineuse. The data set is classed as in vivo. As to the method: as §1
Cette activité ne s'accompagne pas de diminution de la force de contraction cardiaque. L'inversion de l'hypertension à l'adrénaline commence dès la dose de 0,05 mg/kg.

Data set [3] deals with agrégation à l'ADP, au collagène et à l'ADP + adrénaline. The experiment in a line: In vitro aggregation induced by ADP, collagen and ADP + adrenaline. The data set is classed as cell-based. From the text: Les tétrahydroalstonates de sodium, de créatinol et d'imidazole sont actifs in vitro vis-à-vis de l'agrégation à l'ADP, au collagène et à l'ADP + adrénaline; les concentrations actives.variant de 1.10^-3M à 1.10^-5M selon les tests et les composés particuliers répondant à la formule générale I.

Data set [4] relates to excrétion urinaire provoquée par l'adrénaline. The note with it: rat; for augmentation de l'excrétion urinaire provoquée par l'adrénaline: 100 mg par voie orale; for absorption par voie orale: in vivo, po.
Another data set deals with souris. The experiment in a line: Acute toxicity, intravenous route. The data set is classed as in vivo. The following applies: voie intraveineuse, méthode de Kärber. As to the method:
as §2

Take `COC(=O)C1=COC(C)C2CN3CCc4c([nH]c5ccccc45)C3CC12` (stereo not drawn) [raubasine, reference compound]: the “dose pour laquelle l'adrénolyse est parfaitement nette” value in data set [1] came out at 2 mg/kg.
Broadly, the solubility is how much of the substance goes into solution per volume. `CC1OC=C(C(=O)O)C2CC3c4[nH]c5ccccc5c4CCN3CC12` (stereo not drawn) [tétrahydroalstonate de sodium, Tétrahydroalstonate de sodium]: the LD50 in data set [2] came to 330 mg/kg. Moreover, the “activité adrénolytique comparée à la raubasine et à la tétrahydroalstonine” value in data set [1] (voie injectable) was “très nettement supérieure à celle de la raubasine et de la tétrahydroalstonine”. In the data set with pression artérielle, the “pression artérielle” value is listed as “diminution progressive de la pression artérielle proportionnelle à la dose”. In data set [3], the “agrégation à l'ADP” value is given as “actifs”, the “agrégation à l'ADP + adrénaline” value was “actifs” and the “agrégation au collagène” value is listed as “actifs”. Moreover, in data set [4], the “augmentation de l'excrétion urinaire provoquée par l'adrénaline” value is “réduisent l'augmentation de l'excrétion urinaire provoquée par l'adrénaline” and the “absorption par voie orale” value is recorded as “bonne absorption par voie orale”. Also, the solubility in “Solubility” (95% ethanol, organic solvent or mixture) amounted to 70 mg/mL. Also, the solubility in “Solubility” (chloroform, organic solvent or mixture) was 35 mg/mL. The same molecule came in with a solubility in the data set “Solubility” (water) of 90 mg/mL.
With `COC(=O)C1=COC(C)C2CN3CCc4c([nH]c5ccccc45)C3CC12` (stereo not drawn) [tétrahydroalstonine, reference compound], the “dose pour laquelle l'adrénolyse est parfaitement nette” value in data set [1] was 0,5 mg/kg.
On to Tétrahydroalstonate de créatinol, for which the toxicité with souris is 450 mg/kg. In data set [1] (voie injectable), the “activité adrénolytique comparée à la raubasine et à la tétrahydroalstonine” value is listed as “très nettement supérieure à celle de la raubasine et de la tétrahydroalstonine” and the “dose à laquelle les composés agissent (activité adrénolytique)” value was 0,1 mg/kg. The “pression artérielle” value in the data set on pression artérielle is reported as “diminution progressive de la pression artérielle proportionnelle à la dose”. Further, in data set [3], the “agrégation à l'ADP” value is listed as “actifs”, the “agrégation à l'ADP + adrénaline” value was “actifs” and the “agrégation au collagène” value is listed as “actifs”. In addition, for the setting “95% ethanol”, the “Solubilités : éthanol à 95” value is listed as 5%. In addition, the “Solubilités : eau” value (water) is recorded as 5%. Also, in data set [4], the “augmentation de l'excrétion urinaire provoquée par l'adrénaline” value is on record as “réduisent l'augmentation de l'excrétion urinaire provoquée par l'adrénaline” and the “absorption par voie orale” value is on record as “bonne absorption par voie orale”.
tétrahydroalstonate d'imidazole: in data set [3], the “agrégation à l'ADP” value is “actifs”, the “agrégation à l'ADP + adrénaline” value was “actifs” and the “agrégation au collagène” value is “actifs”.

The values are drawn from EP0017525A1, “Derivatives of tetrahydroalstonine, their preparation and their application as medicaments” (PIERRE FABRE S.A., priority 1979, dated 1980).
